# Assay results reported in patent US20110195924A1, “Methods of Inhibiting the Interaction Between S100P and the Receptor for Advanced Glycation End-Products” (priority 2008, published 2011).
# Tests used:
# MPanc-96 cells = experiment: MPanc-96 cell apoptosis by flow cytometry, alone or with gemcitabine; type: cell-based, Human; details: alone and in conjunction with gemcitabine 10 μM; 100 and 1000 nM; 72 hours
# Method: FIG. 11 compares the effects of cromolyn and C5 alone and in combination with gemcitabine on MPanc-96 cell apoptosis. MPanc-96 cells were treated with cromolyn or C5 (100 and 1000 nM) with (+) or without (−) gemcitabine (10 μM). Apoptosis was analyzed after 72 hours by flow cytometry.
# Panc-1 cells = experiment: Panc-1 cell proliferation (MTS); type: cell-based
# Method: Panc-1 pancreatic adenocarcinoma cells (1.0×10^3 cells/well) were cultured in the presence or absence of S100P (100 nM) and with or without cromolyn (100 μM), and cell proliferation was analyzed at 24, 48, and 72 hours. Means and 95% confidence intervals of three independent experiments performed in triplicate are shown. *, P=0.001, S100P alone versus S100P+cromolyn.
# Panc-1 cells were plated at 1.0×10^3 cells/well and treated with platelet-derived growth factor (10 ng/mL) with or without cromolyn (100 μM), and cell proliferation was analyzed after 48 hours. Means and 95% confidence intervals of three independent experiments performed in triplicate are shown. *, P=0.004 PDGF and P=0.022 cromolyn+PDGF versus control.
# Growth of Panc-1 and BxPC3 pancreatic adenocarcinoma cells was analyzed using MTS reagent (Promega, Madison, Wis.) according to the manufacturer's directions. Purified S100P (100 nM final concentration) with or without cromolyn (100 μM final concentration) was added to Panc-1 cells. Only cromolyn (0-100 μM) was added to BxPC-3 cells, which express endogenous S100P. For both cell models, 1.0×10^3 cells/well were plated in 96-well culture dishes. Cells were treated with S100P, PDGF, or cromolyn, or a combination, followed immediately by treatment with either S100P or PDGF. MTS (20 μL per well) was added to cells at various times, and the mixture was incubated for 1 hour at 37° C. Samples were then read at 490 nm (as O.D. units) on a uQuant-Microplate Spectrophotometer (Bio-Tek Services Inc., Richmond, Va.). The assay was performed three times in triplicate.
# S100P = target: T1, S100P (Homo sapiens, UniProt P25815); experiment: S100P binding to cromolyn using affinity chromatography; details: cromolyn coupled to AF-TOYOPEARL; control column did not retain
# T1 construct: full-length human S100P cDNA (NM_005980) was cloned into the pTrcHis2 vector; made in house; host or cells: bacteria (pTrcHis2 vector, IPTG induction)
# T1 sequence (P25815 1-95): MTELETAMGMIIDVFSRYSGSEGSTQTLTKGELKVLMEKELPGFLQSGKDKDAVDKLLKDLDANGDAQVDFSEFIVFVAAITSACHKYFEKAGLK
# Method: Cromolyn was coupled with the amino group of AF-amino TOYOPEARL to generate a cromolyn affinity column. A negative control column was prepared by blocking the amino group. Purified S100P was added to both columns, which were then washed extensively. Protein was eluted from the columns using EGTA and subjected to sodium dodecylsulfate polyacrylamide gel electrophoresis and staining with Commassie blue. Lane 1 of the gel is the molecular weight marker; lane 2 is the eluate from the control column; and lane 3 is the eluate from the cromolyn column (arrow, S100P). The gel shown is one of three independent experiments.
# Cromolyn was coupled to AF-TOYOPEARL resin as described in Shishibori, et al., Three distinct anti-allergic drugs, amlexanox, cromolyn and tranilast, bind to S100A12 and S100A13 of the S100 protein family; Biochem. J. 1999 Mar. 15;338 (Pt 3):583-9. Briefly, 0.1 grams of cromolyn was dissolved in 1 mL of N,N-dimethylformamide and added to 7 mL (5 grams wet mass) AF-TOYOPEARL. Next, 0.5 grams of N-ethyl-N-(3-dimethylaminopropyl)carbodiimide hydrochloride, suspended in 10 mL of N,N-dimethylformamide, was added to the cromolyn+AF-TOYOPEARL slurry. The pH was adjusted to 5.0, and the slurry was incubated with gentle shaking for 48 hours at 25° C. As a negative control, a column was prepared by blocking the amino group of AF-TOYOPEARL with sodium acetate and acetic anhydride. […]
# BxPC-3 cells = experiment: BxPC-3 matrigel invasion assay; type: cell-based; details: 24 hours; for cells invaded, mean: 0 μM 19.3%
# Method: FIGS. 2A-2D show the effect of cromolyn on pancreatic cancer cell invasion. Panc-1 and BxPC-3 cells were plated in Bio-coat matrigel and control chambers and cultured in serum-free culture media. After 24 hours non-invaded cells in the upper chamber were removed, and cells that invaded onto the lower surface of the membrane were counted from five adjacent fields. […] Data are expressed as the percent invasion through the matrigel matrix and membrane relative to migration through the control membrane. Means and 95% confidence intervals from three independent experiments performed in triplicate are shown. Two-tailed two-sample (unpaired) Student's t-tests were used to determine P values. Panc-1 and BxPC-3 cells were seeded in BIOCOAT matrigel invasion chambers and in control chambers without matrigel (Becton-Dickinson, Bedford, Mass.) according to the manufacturer's protocol. Panc-1 cells were seeded with S100P (100 nM) with or without cromolyn (100 μM), and BxPC-3 cells were seeded with or without cromolyn (1-100 μM). Briefly, 2.0×10^5 cells in 300 μL top solution (serum-free media) were added to each chamber and allowed to invade matrigel for 24 hours at 37° C. in a 5% CO2 atmosphere. The non-invading cells on the upper surface of membrane were removed from the chambers with a cotton swab, and the invading cells on the lower surface of the membrane were fixed and stained using a Diff-Quick stain kit (Becton Dickinson, Bedford, Mass.). After two washes with water, the chambers were allowed to air dry. The numbers of invading cells in five adjacent microscope fields per membrane were counted at 20× magnification to obtain the average number of cells per field. Data are expressed as the percent invasion through the matrigel matrix and membrane relative to the migration through the control membrane. The assays were performed three times.
smiles,measurement,setting,value
"O=C(O)c1cc(=O)c2c(OCC(O)COc3cccc4oc(C(=O)O)cc(=O)c34)cccc2o1 [cromolyn, disodium 1,3-bis[(2′-carboxylatochromon-5′-yl)oxy]-2-hydroxypropane]",MPanc-96 cell viability,MPanc-96 cells,inhibit
same,serum stimulated cell proliferation,Panc-1 cells; Panc-1,did not influence
same,"cell proliferation, cromolyn treatment alone","Panc-1 cells; Panc-1, no S100P",no effect
same,PDGF stimulated cell growth,"Panc-1 cells; Panc-1, PDGF 10 ng/mL with cromolyn 100 μM, 48 hours",nor did it inhibit growth stimulation caused by PDGF
same,"cell proliferation, mean","Panc-1 cells; Panc-1, S100P 100 nM + cromolyn 100 μM",0.56 MTS units
same,"cell proliferation, difference S100P versus S100P+cromolyn","Panc-1 cells; Panc-1, S100P 100 nM, cromolyn 100 μM",0.37 MTS units
same,retention of S100P on cromolyn affinity column,S100P,retained S100P
same,"cells invaded, difference versus 0 μM",BxPC-3 cells; cromolyn 10 μM,10.0%
same,"cells invaded, mean",BxPC-3 cells; cromolyn 10 μM,9.3%
same,"cells invaded, difference versus 0 μM",BxPC-3 cells; cromolyn 100 μM,11.7%
same,"cells invaded, mean",BxPC-3 cells; cromolyn 100 μM,7.7%
